Laboratory results: article PMC5542777 (Bioorganic & medicinal chemistry letters, 2017)

Columns and labels:
[1] = Brain penetration in mice; type: in vivo; settings: for brain permeability / brain penetration: 5 mg/kg IP; for Kp at 60 min: mouse, brain and plasma, ip
[2] = Oral pharmacokinetics in mice; type: in vivo; settings: oral gavage 50 mg/kg

Row | brain permeability / brain penetration ([1]; mice) | brain levels ([1]; mice, 60 min after IP injection, 5 mg/kg) | Kp at 60 min ([1]; 5 mg/kg) | plasma exposure [2] | Compound
1 | poor | undetectable | – | – | Clc1cc(Br)cc(CN[C@H]2CCCN(c3nc4nc(Cl)ccc4[nH]3)C2)c1 [Compound 5b]
2 | – | – | 0.044 ± 0.006 | – | CCOc1c(Br)cc(Br)cc1CN[C@H]1CCCN(c2nc3nc(Cl)ccc3[nH]2)C1 [Compound 5p]
3 | moderately good brain penetration | – | 0.191 ± 0.075 | low plasma exposure | CN(CCN[C@@H]1CCNc2c(Cl)cc(Cl)cc21)c1nc2nc(Cl)ccc2[nH]1 [Compound 13]
